Experimental data taken from patent US8846733B2, “Oxazolyl-methylether derivatives as ALX receptor agonists” (Actelion Pharmaceuticals Ltd., priority 2010, dated 2014).
One block for each molecule: values may come before it.

Experiments:
[1] = Plasma stability assay with tritiated compounds, rat plasma; format: in vitro ADME
Method: (§1) Rat or human plasma adjusted at pH 7.4 with lactic acid were equilibrated at 37° C. under orbital shaking. The reaction was initiated by the addition of 10 μM of tritiated compound (7.5 μl of 1 mM stock solution in DMSO in 742.5 μl of plasma). At the beginning and after 4 h, 6 h and 24 h, aliquots (100 μl) were transferred in a tube containing 400 μl MeOH placed on ice to stop the reaction. After vortexing for 20 min at 1400 rpm on an Eppendorf thermomixer, the plates were centrifuged at 3220 g for 20 min at 4° C. and an aliquot of supernatants was analyzed with liquid chromatography coupled to a H3-radiodetector. The remaining pellet was further extracted with AcCN in three additional cycles of resuspension, mixing 20 min at 2000 rpm on an eppendorf thermomixer and centrifugation (3220 g for 20 min at 4° C.). The total radioactivity was measured in the collected supernatants. The final pellet was then solubilized in NaOH 1N and the total radioactivity was measured (table 4).

[2] = Plasma stability assay, rat plasma; format: in vitro ADME; details: for half-life at 1 μM: pH 7.4, 37° C.
Method: (§2) Rat or human plasma adjusted at pH 7.4 with lactic acid or ammonium hydroxide, were equilibrated at 37° C. under orbital shaking in an incubator containing 5% CO2. The reaction was initiated by the addition of 1 μM of compounds (1 μl of 1 mM stock solution in DMSO in 999 μl of plasma). At 0.01 h, 0.25 h, 0.5 h, 1 h, 2 h, 4 h, 6 h and 24 h, aliquots (30 μl) were transferred in a 96 well plate containing 90 μl MeOH placed on ice to stop the reaction. After vortexing for 20 min at 1400 rpm on an Eppendorf thermomixer, the plates were centrifuged at 3220 g for 20 min at 4° C. and the supernatants were analyzed with LC-MSMS. Calibration samples in plasma containing 0.1% of dichlorvos were prepared and analysed in parallel to the incubation samples to allow the quantification. Half lives in hours were then calculated. In addition the remaining concentration of the respective compound after time Tlast relative to the concentration at the beginning has been determined (table 3).

[3] = Plasma stability assay, human plasma; format: in vitro ADME; details: for remaining concentration at Tlast / half-life at 1 μM: human plasma; for half-life at 1 μM: pH 7.4, 37° C.
Method: as §2

[4] = Plasma stability assay with tritiated compounds, human plasma; format: in vitro ADME
Method: as §1

[5] = biological target: T1, recombinant human ALX receptor (Homo sapiens, UniProt P25090); experiment: Intracellular calcium measurements (FLIPR), ALX receptor agonistic activity; format: cell-based; details: HEK293-hALXR-Gα16 cells; Table 1, exemplified compounds
T1 construct: expressed in transfected cells; host or cells: HEK293 (HEK293-hALXR-Gα16)
T1 sequence (P25090 1-351): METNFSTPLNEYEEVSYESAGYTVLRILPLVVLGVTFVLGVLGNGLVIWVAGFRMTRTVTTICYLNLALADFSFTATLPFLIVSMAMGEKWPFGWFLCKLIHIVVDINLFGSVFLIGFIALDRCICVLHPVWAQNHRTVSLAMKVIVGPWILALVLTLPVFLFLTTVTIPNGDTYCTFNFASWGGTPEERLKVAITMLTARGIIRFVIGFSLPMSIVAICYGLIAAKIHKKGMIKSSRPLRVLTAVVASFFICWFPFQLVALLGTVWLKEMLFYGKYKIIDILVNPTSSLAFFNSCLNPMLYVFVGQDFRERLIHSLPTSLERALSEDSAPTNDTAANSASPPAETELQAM
Method: The ALX receptor agonistic activity of the compounds of formula (I) is determined in accordance with the following experimental method.
Intracellular Calcium Measurements:
Cells expressing recombinant human ALX receptor and the G-protein Gα16 (HEK293-hALXR-Gα16) were grown to 80% confluency in Growing Medium (GM). Cells were detached from culture dishes with a cell dissociation buffer (Invitrogen, 13151-014), and collected by centrifugation at 1,000 rpm at rt for 5 min in Assay Buffer (AB) (equal parts of Hank's BSS (Gibco, 14065-049) and DMEM without Phenol Red (Gibco, 11880-028)). After 60 min incubation at 37° C. under 5% CO2 in AB supplemented with 1 μM Fluo-4 (AM) (Invitrogen, F14202) and 20 mM HEPES (Gibco, 15630-056), the cells were washed and resuspended in AB. They were then seeded onto 384-well FLIPR assay plates (Greiner, 781091) at 50,000 cells in 70 μl per well and sedimented by centrifugation at 1,000 rpm for 1 min. Stock solutions of test compounds were made up at a concentration of 10 mM in DMSO, and serially diluted in AB to concentrations required for activation dose response curves. WKYMVm (Phoenix Peptides) was used as a reference agonist. A FLIPR Tetra instrument (Molecular Devices) was operated according to the manufacturer's standard instructions, adding 4 μl of test compound dissolved at 10 mM in DMSO and diluted prior to the experiment in assay buffer to obtain the desired final concentration. Changes in fluorescence were monitored before and after the addition of test compounds at lex=488 nm and lem=540 nm. Emission peak values above base level after compounds addition were exported after base line subtraction. Values were normalized to high-level control (WKYMVm compound, 10 nM final concentration) after subtraction of the base line value (AB addition).

- total radioactivity ([1]; rat plasma pellet, nominal incubation time 0.01 h): 419 dpm
- total radioactivity ([1]; rat plasma pellet, nominal incubation time 4.0 h): 124853 dpm
- total radioactivity ([1]; rat plasma pellet, nominal incubation time 6.4 h): 153683 dpm
- total radioactivity ([1]; rat plasma pellet, nominal incubation time 24.4 h): 180032 dpm
- total radioactivity ([1]; rat plasma supernatant, nominal incubation time 0.01 h, 10 μM tritiated compound): 173116 dpm
- total radioactivity ([1]; rat plasma supernatant, nominal incubation time 4.0 h): 94798 dpm
- total radioactivity ([1]; rat plasma supernatant, nominal incubation time 6.4 h): 45228 dpm
- total radioactivity ([1]; rat plasma supernatant, nominal incubation time 24.4 h): 4816 dpm
- remaining concentration at Tlast ([2]; Tlast 6 h): 42%
- half-life at 1 μM [2]: 4.7 h
- remaining concentration at Tlast ([3]; Tlast 6 h): 18%
- half-life at 1 μM [3]: 2.4 h
- total radioactivity ([4]; human plasma pellet, nominal incubation time 0.01 h): 918 dpm
- total radioactivity ([4]; human plasma pellet, nominal incubation time 4.0 h): 170136 dpm
- total radioactivity ([4]; human plasma pellet, nominal incubation time 6.4 h): 185420 dpm
- total radioactivity ([4]; human plasma pellet, nominal incubation time 24.4 h): 227567 dpm
- total radioactivity ([4]; human plasma supernatant, nominal incubation time 0.01 h, 10 μM tritiated compound): 158854 dpm
- total radioactivity ([4]; human plasma supernatant, nominal incubation time 4.0 h): 38918 dpm
- total radioactivity ([4]; human plasma supernatant, nominal incubation time 6.4 h): 10532 dpm
- total radioactivity ([4]; human plasma supernatant, nominal incubation time 24.4 h): 3134 dpm
Structure (SMILES): CC(=O)c1coc(Cn2ncc(NC(=O)c3nc(C)oc3-c3cccc(C)c3)n2)n1 [reference compound 11, N-(2-((4-acetyloxazol-2-yl)methyl)-2H-1,2,3-triazol-4-yl)-2-methyl-5-(m-tolyl)oxazole-4-carboxamide]
- association of drug related material with plasma proteins, in words ([4]; rat and human plasma, tritiated compound, radioactivity moving from supernatant to pellet): strong association of drug related material with plasma proteins

- remaining concentration at Tlast ([2]; Tlast 24 h): 88%
- half-life at 1 μM [2]: > 24 h
- EC50 [5]: 1.7 nM
- remaining concentration at Tlast ([3]; Tlast 24 h): 101%
- half-life at 1 μM [3]: > 24 h
- stability in plasma, in words ([3]; rat and human plasma, compared with reference compound 11 / compounds of WO 2009/077990): remarkably more stable
Structure (SMILES): COCc1coc(Cn2ncc(NC(=O)c3nc(C)oc3-c3cccc(C)c3)n2)n1 [Example 2, N-(2-((4-(Methoxymethyl)oxazol-2-yl)methyl)-2H-1,2,3-triazol-4-yl)-2-methyl-5-(m-tolyl)oxazole-4-carboxamide]

- EC50 [5]: 17.5 nM
Structure (SMILES): COCc1coc(Cn2ncc(NC(=O)c3ncoc3-c3cccc(OC)c3)n2)n1 [Example 7, N-(2-((4-(Methoxymethyl)oxazol-2-yl)methyl)-2H-1,2,3-triazol-4-yl)-5-(3-methoxyphenyl)oxazole-4-carboxamide]
